Experimental data: PubChem BioAssay (NCI)
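At the GI50, growth is halved. TGI: total growth inhibition.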

Columns and labels:
Assay in all cases: NCI-60 cell line screen, 384-well format
786-0 renal = system: 786-0 renal
UO-31 renal = system: UO-31 renal
LOX IMVI melanoma = system: LOX IMVI melanoma
NCI-H522 lung = system: NCI-H522 lung
IGROV1 ovarian = system: IGROV1 ovarian
SNB-75 CNS = system: SNB-75 CNS
OVCAR-5 ovarian = system: OVCAR-5 ovarian
BT-549 breast = system: BT-549 breast
HOP-62 NSCLC = system: HOP-62 NSCLC
SK-MEL-2 melanoma = system: SK-MEL-2 melanoma
SF-539 CNS = system: SF-539 CNS
UACC-257 melanoma = system: UACC-257 melanoma
SK-MEL-28 melanoma = system: SK-MEL-28 melanoma
SK-OV-3 ovarian = system: SK-OV-3 ovarian
RPMI-8226 leukemia = system: RPMI-8226 leukemia
NCI/ADR-RES ovarian = system: NCI/ADR-RES ovarian
HS 578T breast = system: HS 578T breast
OVCAR-8 ovarian = system: OVCAR-8 ovarian
CCRF-CEM leukemia = system: CCRF-CEM leukemia
NCI-H23 lung = system: NCI-H23 lung
HL-60(TB) leukemia = system: HL-60(TB) leukemia
PC-3 prostate = system: PC-3 prostate
A549 NSCLC = system: A549 NSCLC
SNB-19 CNS = system: SNB-19 CNS
HCT-116 colon = system: HCT-116 colon
RXF 393 renal = system: RXF 393 renal
HT29 colon = system: HT29 colon
HCC-2998 colon = system: HCC-2998 colon
DU-145 prostate = system: DU-145 prostate
K-562 leukemia = system: K-562 leukemia
NCI-H322M lung = system: NCI-H322M lung
HCT-15 colon = system: HCT-15 colon
M14 melanoma = system: M14 melanoma
CAKI-1 renal = system: CAKI-1 renal
SN12C renal = system: SN12C renal
COLO 205 colon = system: COLO 205 colon
MALME-3M melanoma = system: MALME-3M melanoma
MDA-MB-468 breast = system: MDA-MB-468 breast
OVCAR-3 ovarian = system: OVCAR-3 ovarian
MCF7 breast = system: MCF7 breast
KM12 colon = system: KM12 colon
SF-295 CNS = system: SF-295 CNS
SF-268 CNS = system: SF-268 CNS
MDA-MB-435 melanoma = system: MDA-MB-435 melanoma
MOLT-4 leukemia = system: MOLT-4 leukemia
TK-10 renal = system: TK-10 renal
SW-620 colon = system: SW-620 colon
UACC-62 melanoma = system: UACC-62 melanoma
T-47D breast = system: T-47D breast
ACHN renal = system: ACHN renal
MDA-MB-231 breast = system: MDA-MB-231 breast
A498 renal = system: A498 renal
SK-MEL-5 melanoma = system: SK-MEL-5 melanoma
U251 glioblastoma = system: U251 glioblastoma
OVCAR-4 ovarian = system: OVCAR-4 ovarian
NCI-H226 lung = system: NCI-H226 lung

With COc1c(OC[C@H](O)CN2CCOCC2)ccc2c3n(c(=NC(=O)c4cccnc4C)nc12)CCN3 the GI50 ([…]-0 renal) was over 100 µM, the TGI (786-0 renal) was over 100 µM and the GI50 (UO-31 renal) was over 100 µM. For the same molecule, the TGI (UO-31 renal) was over 100 µM, the GI50 (LOX IMVI melanoma) was over 100 µM and the TGI (LOX IMVI melanoma) was over 100 µM. It also gave a GI50 (NCI-H522 lung) of over 100 µM, a TGI (NCI-H522 lung) of over 100 µM and a GI50 (IGROV1 ovarian) of 111 nM. It also gave a TGI (IGROV1 ovarian) of over 100 µM, a GI50 (SNB-75 CNS) of 124 nM and a TGI (SNB-75 CNS) of over 100 µM. It also gave a GI50 (OVCAR-5 ovarian) of over 100 µM, a TGI (OVCAR-5 ovarian) of over 100 µM and a GI50 (BT-549 breast) of 38.6 µM. It also gave a TGI (BT-549 breast) of over 100 µM, a GI50 (HOP-62 NSCLC) of over 100 µM and a TGI (HOP-62 NSCLC) of over 100 µM. For the same molecule, the GI50 (SK-MEL-2 melanoma) was over 100 µM, the TGI (SK-MEL-2 melanoma) was over 100 µM and the GI50 (SF-539 CNS) was over 100 µM. It also gave a TGI (SF-539 CNS) of over 100 µM, a GI50 (UACC-257 melanoma) of over 100 µM and a TGI (UACC-257 melanoma) of over 100 µM. The GI50 (SK-MEL-28 melanoma) was 55.1 µM, the TGI (SK-MEL-28 melanoma) was over 100 µM and the GI50 (SK-OV-3 ovarian) was 413 nM. It also gave a TGI (SK-OV-3 ovarian) of over 100 µM, a GI50 (RPMI-8226 leukemia) of over 100 µM and a TGI (RPMI-8226 leukemia) of over 100 µM. For the same molecule, the GI50 (NCI/ADR-RES ovarian) was over 100 µM, the TGI (NCI/ADR-RES ovarian) was over 100 µM and the GI50 (HS 578T breast) was 3.51 µM. It also gave a TGI (HS 578T breast) of over 100 µM, a GI50 (OVCAR-8 ovarian) of over 100 µM and a TGI (OVCAR-8 ovarian) of over 100 µM. The GI50 (CCRF-CEM leukemia) was 4.36 µM, the TGI (CCRF-CEM leukemia) was over 100 µM and the GI50 (NCI-H23 lung) was over 100 µM. The TGI (NCI-H23 lung) was over 100 µM, the GI50 (HL-60(TB) leukemia) was 14.5 nM and the TGI (HL-60(TB) leukemia) was over 100 µM. The GI50 (PC-3 prostate) was 657 nM, the TGI (PC-3 prostate) was over 100 µM and the GI50 (A549 NSCLC) was over 100 µM. The TGI (A549 NSCLC) was over 100 µM, the GI50 (SNB-19 CNS) was over 100 µM and the TGI (SNB-19 CNS) was over 100 µM. The GI50 (HCT-116 colon) was over 100 µM, the TGI (HCT-116 colon) was over 100 µM and the GI50 (RXF 393 renal) was over 100 µM. The TGI (RXF 393 renal) was over 100 µM, the GI50 (HT29 colon) was over 100 µM and the TGI (HT29 colon) was over 100 µM. For the same molecule, the GI50 (HCC-2998 colon) was over 100 µM, the TGI (HCC-2998 colon) was over 100 µM and the GI50 (DU-145 prostate) was over 100 µM. It also gave a TGI (DU-145 prostate) of over 100 µM, a GI50 (K-562 leukemia) of over 100 µM and a TGI (K-562 leukemia) of over 100 µM. The GI50 (NCI-H322M lung) was 67.1 µM, the TGI (NCI-H322M lung) was over 100 µM and the GI50 (HCT-15 colon) was over 100 µM. For the same molecule, the TGI (HCT-15 colon) was over 100 µM, the GI50 (M14 melanoma) was over 100 µM and the TGI (M14 melanoma) was over 100 µM. It also gave a GI50 (CAKI-1 renal) of over 100 µM, a TGI (CAKI-1 renal) of over 100 µM and a GI50 (SN12C renal) of over 100 µM. For the same molecule, the TGI (SN12C renal) was over 100 µM, the GI50 (COLO 205 colon) was over 100 µM and the TGI (COLO 205 colon) was over 100 µM. It also gave a GI50 (MALME-3M melanoma) of over 100 µM, a TGI (MALME-3M melanoma) of over 100 µM and a GI50 (MDA-MB-468 breast) of 439 nM. It also gave a TGI (MDA-MB-468 breast) of over 100 µM, a GI50 (OVCAR-3 ovarian) of over 100 µM and a TGI (OVCAR-3 ovarian) of over 100 µM. For the same molecule, the GI50 (MCF7 breast) was 87.9 nM, the TGI (MCF7 breast) was over 100 µM and the GI50 (KM12 colon) was over 100 µM. For the same molecule, the TGI (KM12 colon) was over 100 µM, the GI50 (SF-295 CNS) was over 100 µM and the TGI (SF-295 CNS) was over 100 µM. It also gave a GI50 (SF-268 CNS) of over 100 µM, a TGI (SF-268 CNS) of over 100 µM and a GI50 (MDA-MB-435 melanoma) of over 100 µM. The TGI (MDA-MB-435 melanoma) was over 100 µM, the GI50 (MOLT-4 leukemia) was 160 nM and the TGI (MOLT-4 leukemia) was over 100 µM. The GI50 (TK-10 renal) was 2860 nM, the TGI (TK-10 renal) was over 100 µM and the GI50 (SW-620 colon) was over 100 µM. It also gave a TGI (SW-620 colon) of over 100 µM, a GI50 (UACC-62 melanoma) of over 100 µM and a TGI (UACC-62 melanoma) of over 100 µM. It also gave a GI50 (T-47D breast) of 44.6 nM, a TGI (T-47D breast) of 573 nM and a GI50 (ACHN renal) of over 100 µM. The TGI (ACHN renal) was over 100 µM, the GI50 (MDA-MB-231 breast) was over 100 µM and the TGI (MDA-MB-231 breast) was over 100 µM. It also gave a GI50 (A498 renal) of over 100 µM, a TGI (A498 renal) of over 100 µM and a GI50 (SK-MEL-5 melanoma) of over 100 µM. It also gave a TGI (SK-MEL-5 melanoma) of over 100 µM, a GI50 (U251 glioblastoma) of over 100 µM and a TGI (U251 glioblastoma) of over 100 µM. It also gave a GI50 (OVCAR-4 ovarian) of over 100 µM, a TGI (OVCAR-4 ovarian) of over 100 µM and a GI50 (NCI-H226 lung) of over 100 µM. The TGI (NCI-H226 lung) was over 100 µM.
